Experimental data published in US20240208972A1, “LRRK2 INHIBITORS AND USES THEREOF” (NEURON23, INC., priority 2022, published 2024).

How the values were obtained:
[1] = target: T1, wt human LRRK2, catalytic site (Homo sapiens, UniProt Q5S007); assay: TR-FRET LanthaScreen Tb Kinase Activity Assay, LRRK2 kinase inhibition; assay type: biochemical; conditions: 2 nM wt human LRRK2, 400 nM peptide, 38 μM ATP
T1 construct: wt human LRRK2, catalytic site, catalytic site (ThermoFisher/USA); purchased ThermoFisher
Experimental: The compounds disclosed herein were tested for their inhibitory effect on LRRK2 kinase according to the following procedures.
The protocol for basic TR-FRET LanthaScreen Tb Kinase Activity Assay inhibitor studies is as follows. LanthaScreen Kinase Activity Assays (ThermoFisher/USA) to evaluate inhibitors were performed by addition of 100 nL of test compound in the corresponding DMSO dilutions/5 L of kinase/fluorescein-ERM(LRRKtide) peptide mixture, Compound & kinase were pre-incubated for 15 minutes, then 5 μl of ATP into 384 well small volume plates. After incubation for 120 minutes at room temperature, the detection reagents containing Tb-anti-pLRRKtide antibody were added to monitor the phosphrylation level of peptide. Then, after 60 min minutes incubation at room temperature plates were read in Envision. Data analysis of emission ratios was according to the LanthaScreen Tb Kinase Activity Assay protocol.
Kinase and assay components were adjusted to final concentrations according to the kit protocol. For LRRK2: 2 nM wt human LRRK2, catalytic site, catalytic site (ThermoFisher/USA), 400 nM peptide, 38 μM ATP in 1× Kinase Buffer A.
Basic protocol for TR-FRET LanthaScreen Tb Kinase Activity Assay inhibitor studies involved two steps: Enzymatic step: Addition of 100 nl of test compound in corresponding DMSO dilutions, 5 μl of kinase/substrate mixture, 5 μl of ATP into 384 well small volume plates. Incubation for 120 minutes at room temperature.
Detection step: Addition of 10 μl EDTA & antibody, read plate after 60 minutes. Data analysis of emission ratios according to KinEASE assay protocol.
Kinase and assay components were adjusted to final concentrations according to the kit protocol.

[2] = tested on: Caco-2 cells; assay: Caco-2 bidirectional permeability; assay type: in vitro ADME; conditions: for Caco-2 A2B (10^−6 cm/s): A to B; for Caco-2 A2B (10^−6 cm/s) / Caco-2 B2A (10^−6 cm/s): HBSS pH 7.4, 2 hours; for Caco-2 B2A (10^−6 cm/s): B to A; for Caco-2 ER: Efflux Ratio=Papp (BA)/Papp (AB)
Experimental: The compounds disclosed herein were tested in vitro on CaCo2 cell penetration according to the following procedures.
Test compounds were prepared in dimethyl sulfoxide (DMSO).
Caco-2 cells purchased from ATCC were seeded onto […] (PET) in 96-well Corning Insert plates at 1×10^5 cells/cm^2. The media were refreshed every 4 to 5 days until the 21st to 28th day for confluent cell monolayer formation.
Experiments were run in duplicate using a HBSS transport buffer containing 10 mM HEPES at pH 7.4. The test article TEST COMPOUND was tested bi-directionally at […] concentrations, the control compound digoxin was tested bi-directionally at 10 μM, and nadolol and metoprolol were tested at 2.0 μM in the A to B direction. Final DMSO concentrations were adjusted to less than 1%. The plates were incubated for 2 hours in a CO2 incubator at 37±1° C. with 5% CO2 at saturated humidity without shaking. Following incubation, samples were mixed with acetonitrile containing internal standard and centrifuged at 3200×g for 10 minutes. Then 200 μL of supernatant was taken from all samples. For TEST COMPOUND and digoxin, the supernatant was diluted with 200 μL of ultra-pure water and for nadolol and metoprolol, the supernatant was diluted with 600 μL of ultra-pure water. All samples were analyzed by LC-MS/MS. Concentrations of TEST COMPOUND and control compounds were determined in starting solutions, donor well solutions, and receiver well solutions using peak area ratios (PAR) of analyte to internal standard. After the transport assay, a lucifer yellow rejection assay was run to determine the Caco-2 cell monolayer integrity.
The apparent permeability (Papp), the % recovery and the efflux ratio were calculated as follows: • 1. Papp=(dCr/dt)×Vr/(A×C0) • 2. % Recovery=100×[(Vr×Cr)+(Vd×Cd)]/(Vd×C0) • 3. Efflux Ratio=Papp (BA)/Papp (AB) • Where: • dCr/dt is the slope of the cumulative concentration in the receiver compartment versus time (mM/s). • Vr and Vd is the volume in the receiver and donor compartments (0.075 mL on the apical side, 0.25 mL on the basolateral side), respectively. • A is the surface area of the cell monolayer (0.0804 cm^2). • C0 is the measured donor concentrations (μM) at the beginning of the experiment. • Cd and Cr are the final measured concentrations in the donor and receiver compartments, respectively.
The cell monolayer tight junction integrity assay was conducted after completion of the transport assay by adding Lucifer Yellow (LY) to the apical wells at 100 μM and incubating the cells for 30 minutes. Following incubation, tight junction integrity was assessed from LY concentrations in the basolateral compartment (receiver well) and the apical compartment (donor well) using fluorescence detection as follows: […]

[3] = Human hepatocyte stability, in vitro h-Hept CLpredict; assay type: in vitro ADME; conditions: cryopreserved hepatocytes, predicted hepatic clearance, cells without asterisk, read-out: hHep Cl
Experimental: The compounds disclosed herein were tested in vitro on human hepatocyte for in vitro h-Hept CLpredict according to the following procedures. • 1. Compound sock solutions were prepared by dissolving test compound and positive control in dimethyl sulfoxide (DMSO) at a concentration of 10 mM. Stock solutions were then diluted to 100 μM solutions by combining 198 μL of 50% acetonitrile/50% water with 2 μL of the 10 mM stock stock in separate conical tubes. • 2. Cryopreserved hepatocytes were prepared as follows: Incubation medium (William's E Medium supplemented with GlutaMAX) and hepatocyte thawing medium were placed in a 37° C. water bath and allowed to warm for at least 15 minutes prior to use. Cryopreserved hepatocytes were removed from storage, ensuring that vials remained at cryogenic temperatures until thawed. Cells were thawed by placing the vials in a 37° C. water bath and gently shaking the vials for 2 minutes. After thawing was completed, vials were sprayed with 70% ethanol and transferred to a biosafety cabinet. Hepatocytes were transferred into 50 mL conical tube containing thawing medium using wide-bore pipette tips. Tubes were placed into a centrifuge and spun at 100 g for 10 minutes. Then thawing medium was aspirated and hepatocytes were resuspended in enough incubation medium to yield−1.5×10^6 cells/mL. Cells were counted using acridine orange and propidium iodide (AO/PI) staining, and the viable cell density was determined. Cells were diluted with incubation medium to a working cell density of 0.5×10^6 viable cells/mL. • 3. To determine hepatocyte stability, 198 μL of hepatocytes were transferred into each well of a 96-well non-coated plate. Plates were placed in an incubator to allow the hepatocytes to warm for 10 minutes. • 4. The reaction was started by transferring 2 μL of the 100 μM test compound or positive control solution into respective wells of the 96-well non-coated plates. Plates were returned to the incubator until 25 μL aliquots of well contents were sampled at time points of 0, 15, 30, 60, 90 and 120 minutes. The aliquots were then mixed with 6 volumes (150 μL) of acetonitrile containing internal standard, IS (100 nM alprazolam, 200 nM caffeine and 100 nM tolbutamide) to terminate the reaction and vortexed for 5 minutes. After centrifuging the samples for 45 minutes at 3,220 g, aliquots of 100 μL of the supernatant were taken and diluted with 100 μL of ultra-pure water. The mixture was used for LC/MS/MS analysis. All incubations were performed in duplicate.
All calculations were carried out using Microsoft Excel. Peak area ratios (PAR) were determined from extracted ion chromatograms. The in vitro half-life (t1/2) of parent compound was determined by regression analysis of the percent parent disappearance vs. time curve as follows:
The in vitro half-life (in vitro t1/2) was determined from the slope value:
Conversion of the in vitro t1/2 (in minutes) into the in vitro intrinsic clearance (in vitro CLint, in μL/min/1×10^6 cells) was done using the following equation (mean of duplicate determinations): […]
The scaled-up intrinsic clearance (CLint, mL/min/kg), predicted hepatic clearance (CLH, mL/min/kg) and hepatic extraction ratio (ER) were calculated using the following equations:
CLint=(0.693/t1/2)*(1/(hepatocyte concentration (0.5*10^6 cells/mL))*scaling factors (Table (A)
• CLHept-predict=(QH*Scaled-up CLint*fub)/(QH+Scaled-up CLint*fub) • ER=CLH/QH • Where: • V=incubation volume (0.2 mL) • N=number of hepatocytes per well (0.1*10^6 cells) • QH=hepatic blood flow (mL/min/kg) (Table (A)
• fub=fraction of unbound drug in plasma, assumed to be 1 • Values used for calculation of the predicted hepatic clearance parameters data processing rules are outlined in the following tables (A) (B)

T1 sequence (Q5S007 1879-2138 limits assumed): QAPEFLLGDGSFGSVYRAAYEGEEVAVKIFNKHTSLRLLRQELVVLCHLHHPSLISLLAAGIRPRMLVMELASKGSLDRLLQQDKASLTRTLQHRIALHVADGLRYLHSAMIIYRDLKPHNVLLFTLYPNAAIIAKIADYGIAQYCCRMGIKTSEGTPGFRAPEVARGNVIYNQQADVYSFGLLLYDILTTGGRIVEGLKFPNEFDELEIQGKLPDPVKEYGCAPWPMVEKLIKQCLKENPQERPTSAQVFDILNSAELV

SMILES	IC50 [1] [nM]	Caco-2 A2B (10^−6 cm/s) [2]	Caco-2 B2A (10^−6 cm/s) [2]	Caco-2 ER [2]	CLhep predicted at 1 µM [3] [mL/min/kg]
Cc1n[nH]c2c1N=C(c1c(F)cccc1F)Nc1cnc(NCc3ccc(F)cc3F)cc1-2 [Example 16, N-(2,4-difluorobenzyl)-5-(2,6-difluorophenyl)-3-methyl-1,6-dihydropyrazolo[4,3-d]pyrido[4,3-f][1,3]diazepin-9-amine]	< 2	H (H (High permeability)”: A2B (B2A)>5)	H (H (High permeability)”: A2B (B2A)>5)	N (N (Non-substrate)”: ER<2.5)	6.3 to 14.7
CCc1n[nH]c2c1N=C(c1c(F)cccc1F)Nc1cnc(N3CCO[C@@H](C)C3)cc1-2 [Example 35, (S)-4-(5-(2,6-difluorophenyl)-3-ethyl-1,6-dihydropyrazolo[4,3-d]pyrido[4,3-f][1,3]diazepin-9-yl)-2-methylmorpholine]	< 2	H (H (High permeability)”: A2B (B2A)>5)	H (H (High permeability)”: A2B (B2A)>5)	N (N (Non-substrate)”: ER<2.5)	< 6.3
Cc1cc(-c2ccc3c(c2)-c2[nH]nc(C)c2N=C(c2c(F)cccc2F)N3)ccn1 [Example 52, 5-(2,6-difluorophenyl)-3-methyl-9-(2-methyl-4-pyridyl)-1,6-dihydropyrazolo [4,3-d] [1, 3] benzodiazepine]	< 2	H (H (High permeability)”: A2B (B2A)>5)	H (H (High permeability)”: A2B (B2A)>5)	N (N (Non-substrate)”: ER<2.5)	6.3 to 14.7
COC[C@@H]1CN(c2cc3c(c(C)n2)NC(c2c(F)cccc2F)=Nc2c(C)n[nH]c2-3)CCO1 [Example 46, (2S)-4-[8-(2,6-difluorophenyl)-5,11-dimethyl-3,4,7,9,12-pentazatricyclo[8.4.0.02,6]tetradeca-1(10),2(6),4,7,11,13-hexaen-13-yl]-2-(methoxymethyl)morpholine]	< 2	H (H (High permeability)”: A2B (B2A)>5)	H (H (High permeability)”: A2B (B2A)>5)	N (N (Non-substrate)”: ER<2.5)	< 6.3
Cc1n[nH]c2c1N=C(c1c(F)cccc1F)Nc1cnc(N3CC4CC4C3)cc1-2 (stereo not shown) [Example 56, 13-(3-azabicyclo[3.1.0]hexan-3-yl)-8-(2,6-difluorophenyl)-5-methyl-3,4,7,9,12-pentazatricyclo[8.4.0.02,6]tetradeca-1(10),2(6),4,7,11,13-hexaene]	< 2	H (H (High permeability)”: A2B (B2A)>5)	H (H (High permeability)”: A2B (B2A)>5)	N (N (Non-substrate)”: ER<2.5)	> 14.7
Cc1n[nH]c2c1N=C(c1c(F)cccc1F)Nc1ccc(N3C[C@H](C)O[C@@H](C)C3)cc1-2 [Example 24, (2S,6S)-4-(5-(2,6-difluorophenyl)-3-methyl-1,6-dihydrobenzo[d]pyrazolo[3,4-f][1,3]diazepin-9-yl)-2,6-dimethylmorpholine]	< 2	H (H (High permeability)”: A2B (B2A)>5)	H (H (High permeability)”: A2B (B2A)>5)	N (N (Non-substrate)”: ER<2.5)	6.3 to 14.7
Cc1n[nH]c2c1N=C(c1c(F)cccc1F)Nc1cnc(-n3ccc(C#N)n3)cc1-2 [Example 57, 1-[8-(2,6-difluorophenyl)-5-methyl-3,4,7,9,12-pentazatricyclo [8.4.0.02,6]tetradeca-1(10),2(6),4,7,11,13-hexaen-13-yl]pyrazole-3-carbonitrile]	2 to 100	H (H (High permeability)”: A2B (B2A)>5)	H (H (High permeability)”: A2B (B2A)>5)	N (N (Non-substrate)”: ER<2.5)	6.3 to 14.7
COc1nc(N2CCOCC2)cc2c1NC(c1c(F)cccc1F)=Nc1c(C)n[nH]c1-2 [Example 45, 4-[8-(2,6-difluorophenyl)-11-methoxy-5-methyl-3,4,7,9,12-pentazatricyclo[8.4.0.02,6]tetradeca-1(10),2(6),4,7,11,13-hexaen-13-yl]morpholine]	< 2	H (H (High permeability)”: A2B (B2A)>5)	M (M (Moderate permeability)”: 1≤A2B (B2A)≤5)	N (N (Non-substrate)”: ER<2.5)	6.3 to 14.7
